These results are taken from patent US7875602B2 (priority 2005, dated 2011).

Where a name gives a salt, the structure may show the parent alone.

Data set [1] relates to PC-3 human prostate cancer cells. Briefly: In vitro chemoradiosensitization, cell colony count. Format: cell-based. As to conditions: for radiosensitivity of the cancer cell after prior exposure: 5 nM, 2 h exposure before X-rays; for Survival (%): Radiation + compound at 5 nM, 2 h drug exposure. On the procedure:
Chemoradiosensitizing effects of compound 13, compound 10, and compound 20 on human cancer cells were evaluated at a dose of 5 nM. PC-3 human prostate cancer cells were plated on petri dishes in triplicates were allowed to attach. After irradiation, cells were rinsed with HBSS (Hank's balanced salt solution), and covered with fresh media. Cells were cultured for 8-9 days in a 37° C. incubator. The resulting cell colonies were stained and counted. […] Other compounds of this invention can similarly be evaluated in accordance with this method.

Data set [2] has as its system PC-3: human prostate cancer cell line. Format: cell-based. As to conditions: for IC50: Homo sapiens, 72 h, read-out: IC50 (nM) PC-3.
The subject of data set [3] is DMS-14 small lung cancer cells. Briefly: In vitro chemoradiosensitization, cell colony count. As to conditions: for Survival (%): Radiation + compound at 5 nM, 2 h drug exposure. Format: cell-based, human. On the procedure: Chemoradiosensitizing effects of compound 13 on human cancer cells were evaluated at a dose of 5 nM. DMS-14 small lung cancer cells were plated on petri dishes in triplicates were allowed to attach. After irradiation, cells were rinsed with HBSS (Hank's balanced salt solution), and covered with fresh media. Cells were cultured for 8-9 days in a 37° C. incubator. The resulting cell colonies were stained and counted. […] Other compounds of this invention can similarly be evaluated in accordance with this method.

Data set [4] concerns MTG-B mouse mammary adenocarcinoma tumors. In words: In vivo chemoradiosensitization in tumor-bearing mice. Also on record: species or system C3H/HeN mice. As to conditions: single i.p. injection at MTD. The procedure: To determine whether the pronounced effects of compound 13 in tissue culture could be duplicated in solid tumors, in vivo chemoradiosensitization studies were performed on C3H/HeN mice bearing MTG-B mouse mammary adenocarcinoma tumors. Prior to treatment, the tumor grew exponentially following implantation into the flanks of the mice and reached a diameter of 8 mm (268.08 cu. mm) by day 7 to 10. The mice were injected i.p. with compound 13 at MTD using a single injection and then irradiated with a radiation dose of 22 Gy 24 h after the injection. Control groups of mice bearing 8 mm diameter tumors were treated with vehicle alone, or radiation alone, or drug alone. After treatment, tumor sizes were measured by caliper every day. Daily measurement of the tumor diameters (d1, d2) in two orthogonal directions were used to calculate the tumor volume (tumor volume=π/6{(d1+d2)/2}^3) using the approximation that the tumors were spherical (results shown in FIG. 1). The values of time (days) required to grow the tumor to twice their initial size after various treatments were calculated as tumor doubling time (TDT) (±SE) for evaluating the treatment effects. Survival times and curative effects after treatment were also be observed and recorded. Other compounds of this invention can similarly be evaluated in accordance with this method.

Data set [5] deals with DU-145 human prostate cancer cells. Briefly: Chemotherapeutic activity, cell colony count after 24 hr drug exposure. As to conditions: 24 hr exposure. Format: cell-based. On the procedure: (§1) Chemotherapeutic effects of compound 13 on human prostate cancer cells (PC-3 and DU-145) were evaluated at dose concentrations between 0 and 10 nM. Cells plated on Petri dishes in triplicates were allowed to attach, then cells were subjected to 24 hr drug exposure at 37° C. The cells were then rinsed with HBSS ((Hank's balanced salt solution) and covered with fresh media. Cells were cultured for 8-9 days in a 37° C. incubator. The resulting cell colonies were stained and counted. Results are presented in Table 4.

The test system of data set [6] is PC-3 human prostate cancer cells. The data set is described as above. Format: cell-based. As to conditions: 24 hr exposure. On the procedure: as §1
A short description of data set [7]: Acute toxicity, MTD40 (maximum tolerated dose at day 40). Format: in vivo, C3H/HeN mice. As to conditions: i.p. injection, mice checked daily for 45 days; values only in FIG. 3. The procedure: Drugs were dissolved in cremophor:alcohol (1:1) and diluted in saline to a 5% cremophor, 5% alcohol, 90% saline for i.p. injection.
Acute toxicities of a compound of this invention, compound 13, topotecan, CPT and cisplatin were evaluated on C3H/HeN mice (female, 6-8 week old, body weight 18-20 g). The MTD40 (maximum tolerated dose at day 40) values were determined. In the consecutive type studies, 6 mice were dosed at moderate doses of 10, 70, or 106.98, or 141.47, or 187.1 mg/kg. If no severe and irreversible toxicity (euthanasia is required) occurred at these doses, additional 6 animals were initiated at a dose which is 1.3225-1.5283 times higher than the previous non-toxic doses. Sequential dosages (261.94, or 366.72, or 500 mg/kg) were increased until severe and irreversible toxicity (whereby euthanasia is required) occurs. […] The result of this exercise was two dosages, one apparently nonlethal and the other lethal if severe and irreversible toxicity occurred and euthanasia was required. Six mice were dosed at each dosage. If no severe and irreversible toxicity occurred at the lower dosage and at least one with severe and irreversible toxicity at the higher dose, then the lower dose was considered to the MTD. […] Drug toxicity was evaluated on mice, checked daily for 45 days. […] Other compounds of this invention can similarly be evaluated in accordance with this method.

The mark [8] stands for this setting: compound plus radiation, 22 Gy 24 h after the injection.

Turning to `CC[C@@]1(OC(=O)[C@@H](C)ON=C2c3cc([N+](=O)[O-])cc([N+](=O)[O-])c3-c3c2cc([N+](=O)[O-])cc3[N+](=O)[O-])C(=O)OCc2c1cc1n(c2=O)Cc2cc3cc(O)ccc3nc2-1` [Compound 20], the melting point was 210 to 215 °C (dec.). In data set [1], the “radiosensitivity of the cancer cell after prior exposure” value (from here on “radiosensitivity of the cancer cell”) is reported as “significantly increased the radiosensitivity”. Moreover, the “Survival (%)” value in data set [1] (X-rays 0 Gy) was 100%. Also, the “Survival (%)” value in data set [1] (X-rays 1 Gy) stood at 82%. Also, the “Survival (%)” value in data set [1] (X-rays 2 Gy) turned out to be 65%. In data set [1] (X-rays 4 Gy), the “Survival (%)” value was 22%. The IC50 in data set [2] is 6 nM.
As to `CC[C@@]1(OC(=O)[C@@H](C)ON=C2c3cc([N+](=O)[O-])cc([N+](=O)[O-])c3-c3c2cc([N+](=O)[O-])cc3[N+](=O)[O-])C(=O)OCc2c1cc1n(c2=O)Cc2cc3ccccc3nc2-1` [Compound 13], the “radiosensitivity of the cancer cell” value was “significantly increased the radiosensitivity” in data set [3] (5 nM, 2 h exposure before X-rays) and “significantly increased the radiosensitivity” in data set [1]. The “Survival (%)” value is on record as 100% in data set [3] (X-rays 0 Gy); 44% in data set [3] (X-rays 2 Gy); 23% in data set [3] (X-rays 4 Gy); 3% in data set [3] (X-rays 8 Gy); 100% in data set [1] (X-rays 0 Gy); 83% in data set [1] (X-rays 1 Gy). Moreover, the “Survival (%)” value in data set [1] (X-rays 2 Gy) came out at 60%; in data set [1] (X-rays 4 Gy) it was 22%. Further, the “Survival” value is listed as 24 days in data set [4] (compound alone) and 90 days in data set [4] (setting [8]). Further, the entries for the “TDT (days), tumor doubling time” value in data set [4] (compound alone) and in data set [4] (setting [8]) were 12 days and 33 days, respectively. For the same molecule, the “DU-145 Cells % Survival” value in data set [5] (drug conc. 1 nM) was 82%; in data set [5] (drug conc. 5 nM), 43%; in data set [5] (drug conc. 10 nM), 5%. Besides, the “PC-3 Cells % Survival” value in data set [6] (drug conc. 1 nM) is 98%; in data set [6] (drug conc. 5 nM) it was 52%; in data set [6] (drug conc. 10 nM) it was 10%. The IC50 in data set [2] worked out at 5 nM. Moreover, the “toxicity compared with camptothecin and topotecan” value in data set [7] is “Decreased Toxicity”.
With `CC[C@@]1(OC(=O)[C@@H](C)ON=C2c3cc([N+](=O)[O-])cc([N+](=O)[O-])c3-c3c2cc([N+](=O)[O-])cc3[N+](=O)[O-])C(=O)OCc2c1cc1n(c2=O)Cc2cc3c(CN(C)C)c(O)ccc3nc2-1` [Compound 10], the “radiosensitivity of the cancer cell” value in data set [1] is reported as “significantly increased the radiosensitivity”. In addition, the “Survival (%)” value was determined as 100% in data set [1] (X-rays 0 Gy), 90% in data set [1] (X-rays 1 Gy), 66% in data set [1] (X-rays 2 Gy) and 21% in data set [1] (X-rays 4 Gy).
For the molecule `CC[C@@]1(OC(=O)[C@@H](C)ON=C2c3cc([N+](=O)[O-])cc([N+](=O)[O-])c3-c3c2cc([N+](=O)[O-])cc3[N+](=O)[O-])C(=O)OCc2c1cc1n(c2=O)Cc2cc3c(CN(C)C)c(O)ccc3nc2-1` (as salt: hydrochloride) [Compound 10], the melting point was 210 to 213 °C (dec.).
Take `CC[C@@]1(OC(=O)[C@H](C)ON=C2c3cc([N+](=O)[O-])cc([N+](=O)[O-])c3-c3c2cc([N+](=O)[O-])cc3[N+](=O)[O-])C(=O)OCc2c1cc1n(c2=O)Cc2cc3ccccc3nc2-1` [Compound 17]: the IC50 in data set [2] came out at 6 nM.
Take `CC[C@@]1(O)C(=O)OCc2c1cc1n(c2=O)Cc2cc3c(CN(C)C)c(O)ccc3nc2-1` [Topotecan, (20S)-9-dimethylaminomethyl-10-hydroxy CPT, reference compound]: the “IC50 (nM) PC-3” value in data set [2] (72 hours drug incubation, 50% inhibition of colony formation) is given as “no effect”.
Consider `CC[C@@]1(OC(=O)CON=C2c3cc([N+](=O)[O-])cc([N+](=O)[O-])c3-c3c2cc([N+](=O)[O-])cc3[N+](=O)[O-])C(=O)OCc2c1cc1n(c2=O)Cc2cc3c(CN(C)C)c(O)ccc3nc2-1` (as salt: hydrochloride) [Compound 16], for which the melting point is 210 to 215 °C (dec.).
